{
  "source": "paper PMC6934184",
  "about": "“Selective DNA-PKcs inhibition extends the therapeutic index of localized radiotherapy and chemotherapy” (The Journal of Clinical Investigation, 2019)",
  "molecular_target": "T1, RPS6KA2 (RSK3) (Homo sapiens, UniProt Q15349)",
  "T1 construct": "purchased Thermo Fisher Scientific (Life Technologies) SelectScreen",
  "T1 sequence (Q15349 whole entry)": "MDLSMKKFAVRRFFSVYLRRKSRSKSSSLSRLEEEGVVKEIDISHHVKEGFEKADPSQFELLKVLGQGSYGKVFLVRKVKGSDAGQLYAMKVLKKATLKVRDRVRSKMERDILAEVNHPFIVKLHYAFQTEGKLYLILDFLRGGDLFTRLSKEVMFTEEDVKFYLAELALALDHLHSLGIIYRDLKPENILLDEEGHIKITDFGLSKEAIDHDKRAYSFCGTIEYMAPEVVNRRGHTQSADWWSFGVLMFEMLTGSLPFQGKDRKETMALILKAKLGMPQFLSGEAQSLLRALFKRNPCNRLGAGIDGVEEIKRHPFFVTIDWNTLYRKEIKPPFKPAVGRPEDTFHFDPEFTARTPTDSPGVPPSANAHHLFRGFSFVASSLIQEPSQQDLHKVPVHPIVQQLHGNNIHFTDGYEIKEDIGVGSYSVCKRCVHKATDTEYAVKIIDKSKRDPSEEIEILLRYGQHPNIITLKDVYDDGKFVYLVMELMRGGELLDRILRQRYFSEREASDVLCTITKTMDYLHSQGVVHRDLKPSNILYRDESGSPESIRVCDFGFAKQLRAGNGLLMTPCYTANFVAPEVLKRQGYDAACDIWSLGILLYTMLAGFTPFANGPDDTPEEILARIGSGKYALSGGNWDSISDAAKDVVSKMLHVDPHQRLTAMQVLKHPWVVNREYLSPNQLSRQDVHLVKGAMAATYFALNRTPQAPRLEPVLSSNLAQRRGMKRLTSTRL",
  "test": "SelectScreen Z'LYTE",
  "format": "biochemical",
  "procedure,_shortened": "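NU5455 was profiled across the SelectScreen Broad panel of kinase activity and binding assays. Z'LYTE reactions such as CSF1R ran at apparent Km ATP, while the Adapta CAMK1 assay used ATP listed as 10. Values are given as percent.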",
  "data": [
    {"smiles": "CN(C(=O)CN1CCOCC1)c1ccc2sc3c(-c4cccc5c(=O)cc(N6CC7CCC(C6)O7)oc45)cccc3c2c1", "note": "[NU5455]", "values": [
      {"measurement": "inhibition at 1 µM", "result": 10.8, "unit": "%"}
    ]}
  ]
}
